ChEMBL document CHEMBL1152468, “Fitness cost and impaired survival in penicillin-resistant Streptococcus gordonii isolates selected in the laboratory” (2008)
In brackets after ≈: the same amount, converted by molar mass. Activity calls are given as the source filed them. No cut-off for these calls is given here.

Legend:
[1] = system: Streptococcus gordonii; test: Antimicrobial activity against penicillin-resistant Streptococcus gordonii PR1_2evolved mutant co-cultured with wild type Streptococcus gordoni assessed as loss of viability at stationary phase of growth at 0.5 ug/mL after 15 hrs; format: functional, organism-based
[2] = system: Streptococcus gordonii; test: Ratio of generation time for wild type Streptococcus gordonii to generation time for penicillin-resistant Streptococcus gordonii PR1_2 mutant at mid-logarithmic phase of growth; format: functional
[3] = system: Streptococcus gordonii; test: Ratio of generation time for wild type Streptococcus gordonii to generation time for penicillin-resistant Streptococcus gordonii PR1_2evolved mutant at mid-logarithmic phase of growth; format: functional
[4] = system: Streptococcus gordonii; test: Antimicrobial activity against wild type Streptococcus gordonii assessed as generation time at mid-logarithmic phase of growth; format: functional
[5] = system: Streptococcus gordonii; test: Antimicrobial activity against penicillin-resistant Streptococcus gordonii PR1_2 mutant assessed as logarithmic reduction in viability at stationary phase of growth after 70 hrs; format: functional
[6] = system: Streptococcus gordonii; test: Antimicrobial activity against penicillin-resistant Streptococcus gordonii PR1_2 mutant assessed as generation time at mid-logarithmic phase of growth; format: functional
[7] = system: Streptococcus gordonii; test: Antimicrobial activity against wild type Streptococcus gordonii assessed as logarithmic reduction in viability at stationary phase of growth after 70 hrs; format: functional
[8] = system: Streptococcus gordonii; test: Antimicrobial activity against wild type Streptococcus gordonii; format: functional
[9] = system: Streptococcus gordonii; test: Antimicrobial activity against penicillin-resistant Streptococcus gordonii PR1_2 mutant; format: functional
[10] = system: Streptococcus gordonii; test: Antimicrobial activity against penicillin-resistant Streptococcus gordonii PR1_2evolved mutant assessed as generation time at mid-logarithmic phase of growth; format: functional
[11] = system: Streptococcus gordonii; test: Antimicrobial activity against penicillin-resistant Streptococcus gordonii PR1_2evolved mutant co-cultured with wild type Streptococcus gordoni assessed as loss of viability at stationary phase of growth at 0.5 ug/mL after 70 hrs relative to wild type; format: functional, organism-based

With `CC1(C)S[C@@H]2[C@H](NC(=O)Cc3ccccc3)C(=O)N2[C@H]1C(=O)O` [PENICILLIN G] the Activity [1] was “Active”, the Ratio [2] was 0.8 and the Ratio [3] was 1.06. The Activity [4] was 48.4 min, the Activity [5] was greater than 4 log10CFU/ml and the Activity [6] was 60.6 min. For the same molecule, the Activity [7] was 2 log10CFU/ml, the MIC [8] was 0.008 µg/mL (≈ 0.0239 µM) and the MIC [9] was 2 µg/mL (≈ 5.98 µM). The Activity [10] was 45 min and the Activity [11] was “Active”.
